# Legend:
# [1] = tested on: enzymatically isolated leaf cuticles of the top face of pear leaves; assay: Desorption test: influence of additives on tracer mobility in the cuticle (penetration enhancer / plasticizer effect)
# Description: Additives which act as penetration enhancers at the level of the cuticle may be referred to below as accelerator additives (cf. Schönherr and Baur, 1994, Pesticide Science 42, 185-208). The feature of accelerator additives is their ability to penetrate from the aqueous spray liquor and/or from the spray covering into the cuticle and thereby to increase the mobility of the active compounds in the cuticle. Other additives such as polyethylene glycol, in contrast, only act on the spray covering (via the liquid phase) or act only as wetting agents, such as, for example, sodium dodecylsulphate.
# This test determines the influence of additives on the penetration properties of other substances at the level of the cuticle. The mobility of a test substance in the cuticle is measured with and without an additive, by way of a desorption method. The method is published in detail in the literature (Baur et al., 1997, Pesticide Science, 51, 131-152) and only the principles and any deviations are described below.
# As a test substance with the function of a tracer a selection was made here of a radiolabelled weak organic acid. Plant material used comprises the enzymatically isolated leaf cuticles of the top face of pear leaves from outdoor trees. […] This inner side readily takes up the small radioactive amount of the tracer in the undissociated acid form. […]
# [2] = tested on: primary leaves of barley seedlings; assay: Retention test of spray liquor on poorly wettable leaf
# Protocol: Retention is to be understood as meaning the adherence of spray mists to surfaces, for example plants or plant parts (leaves), after spray application. The retention depends both on the composition of the spray liquor and on the nature of the treated surface. The retention of a spray liquor (aqueous solution of the stated additive) was determined using a poorly wettable leaf in comparison to a reference surface with complete retention. The reported results were obtained using primary leaves of barley seedlings which had been cultivated in a greenhouse (18° C., 80% atmospheric humidity, 16 h of light). Individual cut leaves were subjected to standard treatment in a spray cabin using a track sprayer-flat-jet nozzle: XR 11002 VS; pressure: 3 bar; […]. Weight and leaf area were determined prior to the treatment, and the adhering spray coating was correspondingly determined gravimetrically and normalized to leaf area. A nonwoven-fabric paper cloth serves as reference surface for 100% retention. Per spray liquor variant, at least 5 individual leaves were treated, and the calculated retentions were then averaged. A test series where pure tap water as spray liquor was sprayed onto the barley seedling leaves was carried out as negative control (lowest retention).
compound,measurement,setting,value
CCCCC(CC)COC(=O)C(C)O (centres unmarked) [2-Ethylhexyl lactate],Effectiveness as cuticle plasticizer (in words),[1]; Table 1,very effective as a plasticizer
same,Mean effect (ratio of desorption slopes with additive to without additive),"[1]; additive concentration 1 g/l, radiolabelled weak organic acid tracer",45
same,Effect on retention (in words),[2]; 0.3 g/l,increased the retention considerably
same,Retention,"[2]; additive 0.3 g/l in water, 100% = nonwoven-fabric paper cloth",60.6%
same,Retention,[2]; additive 3 g/l + 0.2 g/l Pluronic PE 10500 emulsifier,61%
